Measurements taken from ChEMBL document CHEMBL1201862, “PubChem BioAssay data set” (2004).
Active and inactive are the calls of the source.

Tests used:
[1] = test system: CHO; experiment: CHO cell viability loss, potency – luminescence, cytotoxicity control for TLR9-MyD88 binding inhibitor project, dose response (AID 588339); type: functional, cell-based, hamster; conditions: Cricetulus griseus;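 note: CHO cells stably coexpressing TLR9 and MyD88 fusions from primary screen; compound exposure lasted 48 hours before viability readout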
[2] = biological target: Tyrosyl-DNA phosphodiesterase 2 (Homo sapiens, UniProt O95551); experiment: potency against TDP2 phosphodiesterase activity – biochemical, epi absorbance, IC50, dose response (AID 743297)
Chain of Tyrosyl-DNA phosphodiesterase 2 (O95551 whole entry): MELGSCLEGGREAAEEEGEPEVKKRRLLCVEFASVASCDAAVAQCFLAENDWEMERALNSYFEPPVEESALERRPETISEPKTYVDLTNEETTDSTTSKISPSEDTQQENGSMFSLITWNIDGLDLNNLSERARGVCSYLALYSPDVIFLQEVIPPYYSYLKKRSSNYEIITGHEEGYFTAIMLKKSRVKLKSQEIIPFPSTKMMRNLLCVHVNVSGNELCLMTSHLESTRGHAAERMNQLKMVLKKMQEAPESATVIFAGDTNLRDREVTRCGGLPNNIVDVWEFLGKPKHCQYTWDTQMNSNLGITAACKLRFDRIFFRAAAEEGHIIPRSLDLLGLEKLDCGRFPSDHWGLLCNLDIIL

[3] = biological target: Cytochrome P450 2D6 (Homo sapiens, UniProt P10635);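 note: CYP2D6 member of a cytochrome P450 panel assay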
Chain of Cytochrome P450 2D6 (P10635 whole entry): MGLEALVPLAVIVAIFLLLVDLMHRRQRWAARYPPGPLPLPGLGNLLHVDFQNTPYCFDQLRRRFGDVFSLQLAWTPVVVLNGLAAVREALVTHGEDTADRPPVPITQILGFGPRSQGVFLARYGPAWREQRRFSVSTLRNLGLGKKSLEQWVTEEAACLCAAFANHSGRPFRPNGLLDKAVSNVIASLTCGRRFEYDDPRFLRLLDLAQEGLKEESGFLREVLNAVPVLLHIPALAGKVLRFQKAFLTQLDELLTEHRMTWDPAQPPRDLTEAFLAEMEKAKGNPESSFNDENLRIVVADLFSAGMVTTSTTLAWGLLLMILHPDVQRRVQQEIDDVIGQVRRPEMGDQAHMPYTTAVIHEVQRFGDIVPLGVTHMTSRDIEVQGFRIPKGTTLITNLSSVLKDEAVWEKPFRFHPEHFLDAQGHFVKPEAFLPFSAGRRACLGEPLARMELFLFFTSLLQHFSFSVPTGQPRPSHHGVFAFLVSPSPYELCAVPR

[4] = biological target: Voltage-gated inwardly rectifying potassium channel KCNH2 (Homo sapiens, UniProt Q12809); conditions: Potency;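 note: confirmatory quantitative high-throughput screen measuring inhibition of hERG channel activity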
Chain of Voltage-gated inwardly rectifying potassium channel KCNH2 (Q12809 whole entry): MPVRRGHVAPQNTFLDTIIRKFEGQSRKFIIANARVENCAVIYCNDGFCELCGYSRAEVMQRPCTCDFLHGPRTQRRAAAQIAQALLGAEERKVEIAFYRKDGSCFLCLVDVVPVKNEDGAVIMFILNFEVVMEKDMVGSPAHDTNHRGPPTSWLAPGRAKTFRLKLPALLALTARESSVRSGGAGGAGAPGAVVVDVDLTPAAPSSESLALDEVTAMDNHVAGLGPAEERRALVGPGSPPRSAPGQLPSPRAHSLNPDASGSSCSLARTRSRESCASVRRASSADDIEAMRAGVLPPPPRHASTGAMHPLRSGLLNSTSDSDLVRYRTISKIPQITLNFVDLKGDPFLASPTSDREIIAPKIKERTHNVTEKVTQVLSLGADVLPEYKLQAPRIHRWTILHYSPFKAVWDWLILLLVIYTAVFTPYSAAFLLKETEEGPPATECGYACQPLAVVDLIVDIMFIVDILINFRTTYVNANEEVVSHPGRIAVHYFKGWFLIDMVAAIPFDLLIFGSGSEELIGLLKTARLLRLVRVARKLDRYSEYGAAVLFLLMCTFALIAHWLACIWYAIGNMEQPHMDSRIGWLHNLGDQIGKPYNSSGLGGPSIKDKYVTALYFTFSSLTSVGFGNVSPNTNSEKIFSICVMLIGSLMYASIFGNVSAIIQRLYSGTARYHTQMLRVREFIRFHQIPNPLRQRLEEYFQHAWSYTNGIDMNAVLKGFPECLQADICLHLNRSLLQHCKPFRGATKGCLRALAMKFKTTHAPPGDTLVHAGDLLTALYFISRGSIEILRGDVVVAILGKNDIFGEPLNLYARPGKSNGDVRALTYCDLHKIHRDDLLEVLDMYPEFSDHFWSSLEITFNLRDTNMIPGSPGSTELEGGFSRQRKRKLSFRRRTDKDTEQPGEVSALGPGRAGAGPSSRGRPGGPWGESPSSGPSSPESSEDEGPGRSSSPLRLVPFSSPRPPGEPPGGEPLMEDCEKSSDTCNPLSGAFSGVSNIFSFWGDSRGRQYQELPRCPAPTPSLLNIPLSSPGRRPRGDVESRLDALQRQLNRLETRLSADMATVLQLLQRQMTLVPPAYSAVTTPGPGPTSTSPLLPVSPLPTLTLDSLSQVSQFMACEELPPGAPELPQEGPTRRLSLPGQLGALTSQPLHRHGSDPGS

[5] = biological target: Cytochrome P450 3A4 (Homo sapiens, UniProt P08684);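 note: CYP3A4 tested as one member of a cytochrome P450 panel screen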
Chain of Cytochrome P450 3A4 (P08684 whole entry): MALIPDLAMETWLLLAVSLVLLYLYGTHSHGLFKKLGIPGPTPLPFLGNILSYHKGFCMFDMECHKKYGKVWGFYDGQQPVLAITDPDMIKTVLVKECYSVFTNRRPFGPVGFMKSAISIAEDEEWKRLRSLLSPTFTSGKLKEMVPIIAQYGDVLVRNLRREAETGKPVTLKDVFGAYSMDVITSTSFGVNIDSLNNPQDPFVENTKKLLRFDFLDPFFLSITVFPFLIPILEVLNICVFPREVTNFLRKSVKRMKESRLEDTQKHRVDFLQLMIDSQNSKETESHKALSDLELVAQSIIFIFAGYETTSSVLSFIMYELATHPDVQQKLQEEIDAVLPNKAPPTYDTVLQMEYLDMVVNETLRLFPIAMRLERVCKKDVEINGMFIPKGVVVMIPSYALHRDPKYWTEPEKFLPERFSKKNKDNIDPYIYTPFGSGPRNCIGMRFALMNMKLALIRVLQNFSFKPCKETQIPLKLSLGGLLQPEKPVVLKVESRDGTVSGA

[6] = Luminescence Cell-Based Dose Confirmation HTS to Identify Inhibitors of Platelet Dense Granule Release. [Related pubchem assays: 1663 (Primary HTS), 1678 (Summary of Project)]; type: functional
[7] = biological target: T1, Hexokinase HKDC1 (Homo sapiens, UniProt Q2TB90); experiment: analog inhibition of human HKDC1 activity – biochemical, set 2, SAR follow-up (AID 588355); type: functional
T1 sequence (Q2TB90 whole entry): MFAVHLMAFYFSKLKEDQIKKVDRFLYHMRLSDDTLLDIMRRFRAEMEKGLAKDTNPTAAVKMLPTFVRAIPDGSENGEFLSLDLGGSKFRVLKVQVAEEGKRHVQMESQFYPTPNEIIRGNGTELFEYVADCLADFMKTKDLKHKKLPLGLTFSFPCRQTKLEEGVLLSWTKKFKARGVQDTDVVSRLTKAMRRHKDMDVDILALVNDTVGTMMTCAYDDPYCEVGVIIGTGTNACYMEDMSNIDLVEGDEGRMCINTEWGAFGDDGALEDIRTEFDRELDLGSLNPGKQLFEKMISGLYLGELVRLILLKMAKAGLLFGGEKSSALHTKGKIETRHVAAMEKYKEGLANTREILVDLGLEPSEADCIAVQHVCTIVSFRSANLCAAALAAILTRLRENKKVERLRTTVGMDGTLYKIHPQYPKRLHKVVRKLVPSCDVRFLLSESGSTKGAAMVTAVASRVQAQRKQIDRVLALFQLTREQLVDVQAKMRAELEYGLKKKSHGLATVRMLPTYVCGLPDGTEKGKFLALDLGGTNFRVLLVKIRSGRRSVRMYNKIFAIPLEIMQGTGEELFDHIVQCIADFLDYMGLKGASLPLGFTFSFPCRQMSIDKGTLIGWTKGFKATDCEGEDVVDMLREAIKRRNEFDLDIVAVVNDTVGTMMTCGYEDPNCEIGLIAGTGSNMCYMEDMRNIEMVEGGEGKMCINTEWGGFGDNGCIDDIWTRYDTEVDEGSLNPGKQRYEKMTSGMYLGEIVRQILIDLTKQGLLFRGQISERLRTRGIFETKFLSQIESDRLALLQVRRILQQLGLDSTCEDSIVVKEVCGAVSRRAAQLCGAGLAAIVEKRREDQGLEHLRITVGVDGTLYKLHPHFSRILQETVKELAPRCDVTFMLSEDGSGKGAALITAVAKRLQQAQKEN

[8] = biological target: Luciferin 4-monooxygenase (Photinus pyralis, UniProt P08659); experiment: inhibition of purified Photinus pyralis luciferase – biochemical, luminescence, dose response (AID 1891)
[9] = luciferase reporter signal suppression in cells – H4 neuroglioma cells, luminescence, dose response (AID 1990); type: functional, cell-based
[10] = Luminescence Cell-Based Dose Response HTS to Identify Inhibitors of 5'UTR Stem-Loop Driven Prion Protein mRNA Translation in H4 Neuroglioblastoma Cells. [Related pubchem assays: 1827 (Project Summary), 1813 (Primary HTS)]; type: functional
[11] = biological target: T2, Hexokinase-1 (Homo sapiens, UniProt P19367); experiment: hexokinase 1 activity inhibitors, potency – biochemical, set 2, resazurin fluorescence coupled readout, selectivity assay for HKDC1 inhibitor project, SAR follow-up (AID 588356); type: functional
T2 sequence (P19367 whole entry): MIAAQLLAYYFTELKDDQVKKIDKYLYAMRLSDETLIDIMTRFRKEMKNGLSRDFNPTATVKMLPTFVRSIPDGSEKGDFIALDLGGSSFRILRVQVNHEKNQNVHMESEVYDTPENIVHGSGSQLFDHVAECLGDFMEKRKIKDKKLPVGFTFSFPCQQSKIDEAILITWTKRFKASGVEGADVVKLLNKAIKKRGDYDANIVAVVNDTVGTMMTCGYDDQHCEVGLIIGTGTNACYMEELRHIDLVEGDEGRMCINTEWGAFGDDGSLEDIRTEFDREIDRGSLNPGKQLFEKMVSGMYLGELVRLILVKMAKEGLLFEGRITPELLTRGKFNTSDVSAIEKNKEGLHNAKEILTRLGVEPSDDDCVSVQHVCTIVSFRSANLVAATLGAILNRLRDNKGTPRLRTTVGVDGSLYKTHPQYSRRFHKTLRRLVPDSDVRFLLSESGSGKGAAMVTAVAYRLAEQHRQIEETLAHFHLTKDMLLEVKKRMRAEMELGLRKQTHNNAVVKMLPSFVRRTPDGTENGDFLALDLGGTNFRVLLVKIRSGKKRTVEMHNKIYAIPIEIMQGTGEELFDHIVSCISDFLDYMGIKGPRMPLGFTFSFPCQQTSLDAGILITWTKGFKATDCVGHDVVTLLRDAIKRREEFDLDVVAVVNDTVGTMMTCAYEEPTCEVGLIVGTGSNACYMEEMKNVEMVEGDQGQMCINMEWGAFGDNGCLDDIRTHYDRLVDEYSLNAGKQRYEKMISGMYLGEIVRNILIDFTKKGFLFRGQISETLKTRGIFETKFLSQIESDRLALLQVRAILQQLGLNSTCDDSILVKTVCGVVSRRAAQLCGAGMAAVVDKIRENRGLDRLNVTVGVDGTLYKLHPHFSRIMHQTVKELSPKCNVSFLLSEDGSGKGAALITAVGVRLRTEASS

[12] = biological target: Short transient receptor potential channel 6 (Mus musculus, UniProt Q61143); experiment: mouse TRPC6 channel blockers, concentration series – HEK293 cells, membrane potential dye, IC50, selectivity assay for selective TRPC4 inhibitor project, dose response (AID 492987); type: functional, cell-based
Chain of Short transient receptor potential channel 6 (Q61143 whole entry): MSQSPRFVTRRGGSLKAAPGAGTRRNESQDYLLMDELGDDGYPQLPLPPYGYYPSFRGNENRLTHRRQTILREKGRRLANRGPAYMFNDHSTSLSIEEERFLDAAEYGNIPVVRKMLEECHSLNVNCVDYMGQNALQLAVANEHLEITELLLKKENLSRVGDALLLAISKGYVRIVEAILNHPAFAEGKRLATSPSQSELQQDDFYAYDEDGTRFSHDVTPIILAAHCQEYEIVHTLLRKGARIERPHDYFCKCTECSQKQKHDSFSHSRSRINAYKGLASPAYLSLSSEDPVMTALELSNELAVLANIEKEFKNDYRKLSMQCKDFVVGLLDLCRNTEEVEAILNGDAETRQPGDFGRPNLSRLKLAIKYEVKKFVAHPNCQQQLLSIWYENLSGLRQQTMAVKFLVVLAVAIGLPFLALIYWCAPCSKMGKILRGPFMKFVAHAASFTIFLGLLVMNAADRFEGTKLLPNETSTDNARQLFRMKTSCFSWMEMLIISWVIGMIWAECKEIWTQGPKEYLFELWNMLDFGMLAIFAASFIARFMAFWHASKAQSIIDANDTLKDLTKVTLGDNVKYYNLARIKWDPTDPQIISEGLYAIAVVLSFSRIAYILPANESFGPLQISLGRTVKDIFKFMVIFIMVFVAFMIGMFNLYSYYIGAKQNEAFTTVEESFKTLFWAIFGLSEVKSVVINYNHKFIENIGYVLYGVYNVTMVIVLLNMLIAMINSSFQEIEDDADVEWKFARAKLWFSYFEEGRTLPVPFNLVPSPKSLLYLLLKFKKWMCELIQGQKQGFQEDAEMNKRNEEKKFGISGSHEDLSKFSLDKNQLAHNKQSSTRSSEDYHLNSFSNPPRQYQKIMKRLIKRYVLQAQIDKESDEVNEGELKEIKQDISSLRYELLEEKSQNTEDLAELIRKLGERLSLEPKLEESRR

[13] = loss of viability in HepG2 cells – cell-based, CellTiter-Glo, cherry-picked, cytotoxicity control for Shn3 inhibitor project, dose response (AID 624134); type: functional
[14] = reduction of Shn3 3'UTR-driven luciferase in osteoblasts – cell-based, Clone20 osteoblasts, firefly luciferase, cherry-picked, dose response (AID 624132); type: functional;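 note: firefly luciferase luminescence from reporter carrying the Shn3 3'UTR in osteoblasts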
[15] = NIH-3T3 fibroblast cytotoxicity, dose response, cytotoxicity control, cell-based, fluorescence, Alamar Blue, secondary assay (AID 2327); type: functional;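 note: NIH-3T3 mouse fibroblasts cultured with fluconazole at 8 µg/mL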
[16] = non-specific 3'UTR reporter inhibition in Clone20-Shn3RL – cell-based, Renilla luciferase, cherry-picked, counter-screen for Shn3 inhibitor project, dose response (AID 624133); type: functional
[17] = fluconazole-exposed Candida albicans growth modulators – fluorescence, retest, confirmation (AID 2467); type: functional, cell-based
[18] = biological target: Phospholipase A2 (Homo sapiens, UniProt P04054); type: functional;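 note: confirmatory dose-response counterscreen on phospholipase A2, testing hits that came from an ultra-high-throughput screen for ATG4B inhibitors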
Chain of Phospholipase A2 (P04054 whole entry): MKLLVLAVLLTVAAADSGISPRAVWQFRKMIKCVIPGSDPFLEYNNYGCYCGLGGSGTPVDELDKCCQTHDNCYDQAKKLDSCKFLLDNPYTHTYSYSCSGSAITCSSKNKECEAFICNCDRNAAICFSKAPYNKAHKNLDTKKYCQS

[19] = biological target: Cysteine protease ATG4B (Homo sapiens, UniProt Q9Y4P1); type: functional;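 note: Fluorescence-based dose-response confirmation assay measuring inhibition of ATG4B activity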
Chain of Cysteine protease ATG4B (Q9Y4P1 whole entry): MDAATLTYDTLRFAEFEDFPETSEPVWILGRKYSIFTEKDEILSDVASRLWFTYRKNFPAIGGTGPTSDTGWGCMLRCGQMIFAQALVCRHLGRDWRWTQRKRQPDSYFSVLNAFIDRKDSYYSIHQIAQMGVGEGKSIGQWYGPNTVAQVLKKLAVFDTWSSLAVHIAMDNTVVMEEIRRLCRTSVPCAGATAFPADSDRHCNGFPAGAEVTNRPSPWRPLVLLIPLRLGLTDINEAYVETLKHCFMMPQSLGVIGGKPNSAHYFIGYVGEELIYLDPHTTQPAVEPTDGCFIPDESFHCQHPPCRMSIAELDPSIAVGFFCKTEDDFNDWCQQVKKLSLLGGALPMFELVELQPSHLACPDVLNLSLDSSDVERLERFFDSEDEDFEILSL

[20] = biological target: T3, Ubiquitin-conjugating enzyme E2 N (Homo sapiens, UniProt P61088); type: functional;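 note: Dose-response confirmation in a TR-FRET assay detecting UBC13-driven polyubiquitin chain formation, inhibition measured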
T3 sequence (P61088 whole entry): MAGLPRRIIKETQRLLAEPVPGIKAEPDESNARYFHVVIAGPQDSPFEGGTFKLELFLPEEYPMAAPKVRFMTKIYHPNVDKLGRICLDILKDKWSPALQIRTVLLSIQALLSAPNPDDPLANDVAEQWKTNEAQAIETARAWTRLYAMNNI

[21] = HEK-293T cell viability reduction – luminescence, B-cell screen hits, cytotoxicity control for BCR NF-kB inhibitor project, dose response (AID 489021); type: functional, cell-based;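 note: HEK-293T cells carrying an NF-kB luciferase reporter; cells exposed to compound for about 14 hours before viability readout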
[22] = test system: HEK293; experiment: HEK293T cell viability loss, resazurin readout – resazurin fluorescence, cytotoxicity control for NF-kB activator project, SAR follow-up (AID 493251); type: functional, cell-based; conditions: Homo sapiens
[23] = general cell-killing toxicity readout – plate reader, dry powder samples, cytotoxicity control for PAX8 inhibitor project, dose response (AID 743021); type: functional, cell-based
[24] = test system: A-375; experiment: proliferation inhibition in MITF-low A375 cells – cell-based, cherry-pick samples, set 2, counter-screen for MITF modulator project, dose response (AID 540335); type: functional; conditions: Homo sapiens
[25] = biological target: Paired box protein Pax-8 (Homo sapiens, UniProt Q06710); experiment: PAX8 transcriptional activity inhibition in RMG-I – RMG-I cells, luciferase, cherry-pick, dose response (AID 687027); type: functional, cell-based;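 note: luciferase reporter driven by Pax8 target thyroperoxidase promoter measured by SteadyGlo luminescence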
Chain of Paired box protein Pax-8 (Q06710 whole entry): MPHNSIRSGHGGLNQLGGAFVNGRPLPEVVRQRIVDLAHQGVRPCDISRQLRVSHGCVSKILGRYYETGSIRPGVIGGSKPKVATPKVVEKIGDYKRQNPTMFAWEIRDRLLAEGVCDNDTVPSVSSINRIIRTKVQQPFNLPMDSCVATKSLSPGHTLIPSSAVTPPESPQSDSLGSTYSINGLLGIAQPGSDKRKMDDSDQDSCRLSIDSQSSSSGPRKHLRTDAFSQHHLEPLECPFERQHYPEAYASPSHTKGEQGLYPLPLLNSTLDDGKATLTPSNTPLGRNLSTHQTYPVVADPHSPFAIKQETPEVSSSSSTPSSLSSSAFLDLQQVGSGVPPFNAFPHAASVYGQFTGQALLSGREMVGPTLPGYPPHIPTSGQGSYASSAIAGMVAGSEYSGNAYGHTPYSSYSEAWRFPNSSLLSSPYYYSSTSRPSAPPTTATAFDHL

[26] = biological target: T4, Heat shock factor protein 1 (Mus musculus, UniProt P38532); experiment: decrease of HSF1-responsive luciferase luminescence – cell-based, NIH3T3, dose retest, confirmation (AID 2382); type: functional;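 note: NIH3T3 fibroblasts with HSF1-driven luciferase reporter stressed by proteasome inhibitor MG132; luminescence from HSF1-driven luciferase expression after 8 hours of MG132 stress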
T4 sequence (P38532 whole entry): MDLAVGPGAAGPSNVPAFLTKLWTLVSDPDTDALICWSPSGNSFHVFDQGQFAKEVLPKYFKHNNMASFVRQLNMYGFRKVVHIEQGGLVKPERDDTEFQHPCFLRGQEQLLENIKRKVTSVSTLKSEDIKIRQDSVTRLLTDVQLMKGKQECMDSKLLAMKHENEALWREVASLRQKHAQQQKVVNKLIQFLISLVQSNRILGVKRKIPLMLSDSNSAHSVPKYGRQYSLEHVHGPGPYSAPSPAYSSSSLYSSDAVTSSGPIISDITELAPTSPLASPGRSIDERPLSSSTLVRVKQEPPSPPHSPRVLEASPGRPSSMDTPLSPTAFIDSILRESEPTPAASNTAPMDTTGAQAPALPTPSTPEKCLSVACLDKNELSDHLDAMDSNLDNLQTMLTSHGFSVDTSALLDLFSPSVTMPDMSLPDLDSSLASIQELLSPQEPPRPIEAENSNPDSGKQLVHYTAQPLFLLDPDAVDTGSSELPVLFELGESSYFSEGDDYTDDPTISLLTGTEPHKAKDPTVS

[27] = test system: INS1; experiment: INS-1E survival protection against cytokine death – cell-based, luminescence, retest, dose response (AID 449756); type: functional; conditions: Rattus norvegicus;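 note: cell death triggered by IL-1 beta plus TNF-alpha plus IFN-gamma mixture; protective hits raise ATP signal compared with cytokine alone wells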
[28] = biological target: T5, Microphthalmia-associated transcription factor (Homo sapiens, UniProt O75030); experiment: reducers of TRPM1 reporter luminescence, concentration series – cell-based, SK-MEL-5, cherry-picked, set 3, MITF inhibitor project, dose response (AID 493073); type: functional;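 note: SK-MEL-5 melanoma cells with luciferase driven by the MITF target TRPM1 promoter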
T5 sequence (O75030 whole entry): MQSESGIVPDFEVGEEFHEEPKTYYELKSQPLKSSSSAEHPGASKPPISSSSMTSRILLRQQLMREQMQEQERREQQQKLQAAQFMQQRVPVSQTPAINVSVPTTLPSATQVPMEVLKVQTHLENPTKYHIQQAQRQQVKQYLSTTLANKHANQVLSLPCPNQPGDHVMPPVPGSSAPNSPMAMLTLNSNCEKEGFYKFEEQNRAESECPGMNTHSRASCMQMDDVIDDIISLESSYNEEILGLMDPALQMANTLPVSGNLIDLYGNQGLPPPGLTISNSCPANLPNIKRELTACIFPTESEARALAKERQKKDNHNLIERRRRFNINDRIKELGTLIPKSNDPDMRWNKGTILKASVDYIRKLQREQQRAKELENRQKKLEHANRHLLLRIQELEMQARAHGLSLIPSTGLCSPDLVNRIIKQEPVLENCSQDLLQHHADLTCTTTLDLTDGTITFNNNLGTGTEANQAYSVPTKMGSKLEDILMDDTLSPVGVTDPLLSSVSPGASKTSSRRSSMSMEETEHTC

[29] = biological target: Induced myeloid leukemia cell differentiation protein Mcl-1 (Homo sapiens, UniProt Q07820); type: functional
[30] = biological target: Dual specificity protein kinase CLK1 (Homo sapiens, UniProt P49759); experiment: inhibition of human CLK1 activity – biochemical, cherry-picked samples, selectivity assay for Dyrk1A inhibitor project, dose response (AID 588811)
Chain of Dual specificity protein kinase CLK1 (P49759 whole entry): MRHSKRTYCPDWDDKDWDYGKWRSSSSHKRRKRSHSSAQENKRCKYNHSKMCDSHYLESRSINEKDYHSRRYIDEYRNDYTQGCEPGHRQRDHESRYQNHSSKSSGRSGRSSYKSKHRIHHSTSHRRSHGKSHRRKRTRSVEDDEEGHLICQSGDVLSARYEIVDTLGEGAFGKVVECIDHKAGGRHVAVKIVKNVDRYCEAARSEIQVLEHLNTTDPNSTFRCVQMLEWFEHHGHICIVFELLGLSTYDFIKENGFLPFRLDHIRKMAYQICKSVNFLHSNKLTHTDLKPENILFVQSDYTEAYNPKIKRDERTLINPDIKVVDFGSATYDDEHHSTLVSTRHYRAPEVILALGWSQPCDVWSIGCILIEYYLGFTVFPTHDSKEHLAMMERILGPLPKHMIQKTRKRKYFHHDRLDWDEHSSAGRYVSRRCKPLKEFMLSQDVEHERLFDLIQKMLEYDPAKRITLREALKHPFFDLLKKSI

[31] = biological target: Dual specificity tyrosine-phosphorylation-regulated kinase 1A (Rattus norvegicus, UniProt Q63470); type: biochemical, Homo sapiens

For `N#Cc1sc2nc(-c3ccccc3)cc(-c3ccco3)c2c1N`, the IC50 [1] was 40.7 µM (inactive) and the IC50 [2] was > 128 µM (inactive).

With `NC(=O)CNCCC(c1ccccc1)c1ccccc1` the AC50 [3] was 20 µM (inconclusive), the AC50 [4] was 15.8 µM (inconclusive) and the AC50 [5] was 2 µM (inconclusive).

With `COc1cc2c(cc1OC)-c1cc(Nc3ccccc3Br)nc(=O)n1CC2` the EC50 [6] was 0.115 µM (active), the IC50 [7] was > 80 µM (inactive) and the EC50 [8] was > 112 µM (not active). The EC50 [9] was 26.2 µM (active), the EC50 [10] was 13.4 µM (active) and the IC50 [11] was > 80 µM (inactive).

For `Cc1cc(N2CCNCC2)nc2ccccc12`, the IC50 [12] was 20.4 µM (active).

In the case of `Cc1c(CCOC(=O)C23CC4(C)CC(C)(CC(C)(C4)C2)C3)sc[n+]1CC(=O)c1ccccc1`, the AC50 [13] is reported as 23.6 µM (active), the AC50 [14] is reported as 5.84 µM (active) and the EC50 [15] is reported as > 150 µM (inactive). For the same molecule, the AC50 [16] was 7.21 µM (active), the EC50 [17] was > 38 µM (not active) and the IC50 [18] was 8.77 µM (active). For the same molecule, the IC50 [19] was 8.57 µM (active) and the IC50 [20] was > 20 µM (inactive).

In the case of `COc1ccc(-c2nc(CSCC(=O)NCc3ccco3)c(C)o2)cc1`, the IC50 [21] is reported as > 80 µM (inactive) and the IC50 [22] is reported as 67.1 µM (inactive).

In the case of `O=C(CCl)N(c1ccccc1)C1CCCCC1`, the AC50 [23] is reported as 10.7 µM (active), the AC50 [24] is reported as 7.54 µM (active) and the AC50 [25] is reported as 3.98 µM (active). The EC50 [26] was 4.98 µM (active), the AC50 [27] was 4.88 µM (active) and the AC50 [28] was 4.51 µM (active).

With `O=C(Nc1nc(-c2ccncc2)cs1)c1ccco1` the IC50 [29] was 4.34 µM (active), the AC50 [30] was 2.56 µM (active) and the AC50 [31] was 1.92 µM (active).
